Columns and labels:
[1] = Stability on storage by HPLC (solid or chloroform solution; temperature, light); conditions: for HPLC % at RRT = 1: SC12
Procedure: At this point, a stability study was conducted on batch CH730/16/8g.
The samples were analyzed at t=0 and after 20 days.

[2] = system: human PBMCs; assay: IL-6 secretion in human PBMCs, two batches of Compound A and SC12 (Example 4); type: cell-based; conditions: 5 months storage in DMSO at 4° C.
Procedure: PBMCs were purified from two donors and plated into 96 well plates at 2×10^5 cells/well in RPMI media including human 2% heat inactivated AB serum, glutamine, Pen-strep and β-mercaptoethanol. The cells were treated with TLR7 agonists for 24 h in 4 doses. The conditioned media was removed for ELISA analyses for IL-6, and the EC50 value determined for each compound and each batch.
All compounds were tested in four concentrations (10-1-0.1-0.01 micromolar).
Concentrations of IL-6 were determined by ELISA from R&D Systems using the Microsoft Excel software. The results were analyzed in Graph Pad Prism in order to prepare dose-response curves, and for determination of EC50 values.

[3] = system: RAW.264 cells; assay: Intracellular uptake in RAW.264 cells, LC-MS; type: in vitro ADME; conditions: 10 microM
Procedure: 5×10^6 RAW.264 cells were adhered overnight in 10 cm tissue culture dishes. […] […] Supernatant (2 ml) and cells (pellets) were collected by trypsinization and frozen at […] for subsequent analysis by LC-MS.

[4] = system: plasmacytoid CD11c−/CD123+DCs; assay: FACS, plasmacytoid DC activation in whole blood; type: cell-based, human; conditions: 24 hours; 0.1 and 0.5 uM
Procedure: (§1) The FACS analysis for donor 1 and donor 2 was made on another day than donor 3. The compound concentrations were as follows:
(§2) B cell activation: 2 and 10 uM mDC/pDC: 0.1 and 0.5 uM
(§3) The FACS analysis was used to identify whether the test compounds could induce activation of B cells, and two different subsets of dendritic cells, namely the myeloid CD11c+/CD123− DCs and the plasmacytoid CD11c−/CD123+DCs. The following markers were studied to identify the activation status of the different subsets:
The FACS staining was performed according to the manufacturer's instructions. Lysis of red blood cells was performed before FACS staining in order to minimize auto-florescence. To include as many B cells and DCs in the study as possible the FACS analyses were performed on 500,000 cells in total for each staining. A P1 gate was set only to include relevant cells on FSC vs. SSC (see FIGS. 12-15). The results of the individual analysis were present as Mean Fluorescence Intensity (MFI) values, for certain activation marker in a given gate setting, represent the actual cell subset. The isotype background values have been used to set the gates so that a maximum at 2% of unspecific stained cells could be found in the positive gates.
The analysis of pDCs was based on HLA-DR+/CD11c−/CD123+ cells, thus all analyzed cells were included in the HLA-DR+ (P3) gate and CD11c−/CD123+(Q1) gate.

[5] = system: 73 primary molecular targets; assay: Radioligand binding assay among 73 primary molecular targets; conditions: SC12 tested at 30 microM
[6] = molecular target: T1, CYP2E1 (Homo sapiens, UniProt P05181); assay: Fluorescent High Throughput P450 assay, CYP2E1; type: biochemical
T1 construct: purchased Gentest
Procedure: (§4) Inhibition of the P450 isoforms was measured in specific assays using specific substrates that become fluorescent upon CYP metabolism. Compounds, dissolved in ACN (acetonitrile) (CYP2E1, CYP2C8, CYP2B6, CYP3A5) or DMSO (all remaining isoforms), were tested in duplicate (n=2) in concentration-response curves (eight concentrations) in a 96-well plate containing incubation/NADPH regenerating buffer. Specific isoenzymes and substrates were added and incubated at 37° C. Reactions were terminated at different times, depending on the assays, and plates read on a Fluoroskan Ascent at the appropriate emission/excitation wavelengths. Concentration-response curves performed in duplicate for known inhibitors for each isoenzyme were tested in every assay as positive control.

[7] = Single dose intravenous toxicity study in rats; type: in vivo, Sprague Dawley rat
Procedure: An additional group, similarly composed, received the vehicle alone and acted as a control. […] Clinical signs were limited to piloerection and reduced activity, observed on the day of dosing.
A second group was dosed at 100 mg/kg. […] A third group was then dosed at 85 mg/kg. […] A fourth group was finally dosed at 90 mg/kg. […] Piloerection was observed from Day 2 up to Day 4 of the study.
In the main phase, 5 male and 5 female animals were dosed at 90 mg/kg and observed for a period of 14 days. A second group, similarly constituted, received the vehicle alone and acted as control. […] In addition, one male and one female dosed at 90 mg/kg were found dead on Day 2 of the study. Twitches, ataxia, piloerection, reduced activity and hunched posture were the major signs observed in animals before death. […] Piloerection was observed up to Day 3 of the study. A second group, similarly composed, was dosed at 80 mg/kg.
Recovery occurred by Day 15 and the body weight changes were within the expected range for this species and age of animals at the end of the study. […] Surviving animals were killed at the end of the observation period with carbon dioxide narcosis. All animals, including the early decedents, were subjected to necropsy examination. […] Therefore, the maximum tolerated dose in this study was considered to be 80 mg/kg.

[8] = system: recombinant antigens from Plasmodium falciparum and Mycobacterium ulcerans; assay: Pilot immunization study with adjuvanted recombinant protein antigens; type: in vivo, mouse
Procedure: A pilot immunization study was conducted using Compound A and SC12 adjuvanted protein antigens. The immunization experiments were performed with two recombinant proteins expressed in E. coli. One antigen was derived from the malaria parasite Plasmodium falciparum and the other one from Mycobacterium ulcerans, which cause the ulcerative skin disease Buruli ulcer.

[9] = system: Cutaneous Squamous Cell Carcinoma (SCC) cell lines SCL-I, SCL-II, SCC-12, SCC-13
Procedure: SCC cells are grown under standard conditions (10% FBS).
Time and dose dependency of effects on total cell numbers have been investigated by real-time cell analysis, which is based on continuous monitoring of electric conductance in microtiter wells (E-plates, Roche), which corresponds to the cell numbers. […] For these assays 4 cell lines may be used to obtain a representative overview on the effects on SCC cells.

[10] = system: HLA-DR+/CD20+ B cells; assay: FACS, B cell activation in whole blood; type: cell-based, human; conditions: 24 hours; 2 and 10 uM
Procedure: as §1, §2, §3
B-cells: HLA-DR/CD20/CD40
The FACS staining was performed according to the manufacturer's instructions. Lysis of red blood cells was performed before FACS staining in order to minimize auto-florescence. To include as many B cells and DCs in the study as possible the FACS analyses were performed on 500,000 cells in total for each staining. […] The results of the individual analysis were present as Mean Fluorescence Intensity (MFI) values, for certain activation marker in a given gate setting, represent the actual cell subset. The isotype background values have been used to set the gates so that a maximum at 2% of unspecific stained cells could be found in the positive gates.
The analysis of expression of the activation marker CD40 on B cells was made on double positive HLA-DR (MHC class II) (P4 gate) and CD20 cells (B cell marker) (P8 gate).

[11] = molecular target: T2, CYP3A5 (Homo sapiens, UniProt P20815); assay: Fluorescent High Throughput P450 assay, CYP3A5; type: biochemical
T2 construct: purchased Gentest
Procedure: as §4

[12] = system: AY-27 rat bladder cancer cell-line; assay: Orthotopic rat bladder cancer model, intravesical instillation; conditions: of 14 per group
[13] = In vivo pharmacodynamics, serum cytokines after intravenous injection; design: species or system mouse; conditions: 200 nmol intravenously
Procedure: For in vivo pharmacodynamic experiments, 6- to 8-week old C57BU6 mice were intravenously injected with the unconjugated and phospholipid-conjugated TLR7 agonists (200 nmol). Sera were separated and kept at −20° C. until use. The levels of cytokines in the sera were measured by Luminex bead microassay. The minimum detection levels of IL-6 and TNF-alpha were 5 pg/mL and 10 pg/mL, respectively.

[14] = system: Salmonella typhimurium TA1535, TA1537, TA98, TA100; assay: Bacterial mutation assay, Salmonella typhimurium; type: cell-based
Procedure: The five tester strains TA1535, TA1537, TA98, TA100 and WP2 uvrA were used. Experiments were performed both in the absence and presence of metabolic activation, using liver S9 fraction from rats pre-treated with phenobarbitone and betanaphthoflavone. SC12 was used as a solution in dimethylsulfoxide (DMSO).

T2 sequence (P20815 whole entry): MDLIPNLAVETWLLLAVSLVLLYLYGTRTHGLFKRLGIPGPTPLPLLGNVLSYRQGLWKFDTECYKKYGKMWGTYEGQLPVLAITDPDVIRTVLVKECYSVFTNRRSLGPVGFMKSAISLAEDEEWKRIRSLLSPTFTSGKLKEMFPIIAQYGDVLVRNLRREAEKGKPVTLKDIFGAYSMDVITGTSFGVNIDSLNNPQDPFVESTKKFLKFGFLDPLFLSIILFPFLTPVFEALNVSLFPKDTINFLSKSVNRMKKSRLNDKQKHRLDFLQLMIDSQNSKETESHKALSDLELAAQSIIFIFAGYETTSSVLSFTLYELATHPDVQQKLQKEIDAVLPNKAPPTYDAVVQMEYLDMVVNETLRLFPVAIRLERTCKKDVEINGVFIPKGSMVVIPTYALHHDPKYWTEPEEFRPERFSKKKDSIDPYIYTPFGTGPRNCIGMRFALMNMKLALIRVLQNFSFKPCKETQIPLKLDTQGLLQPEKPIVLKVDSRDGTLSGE
T1 sequence (P05181 whole entry): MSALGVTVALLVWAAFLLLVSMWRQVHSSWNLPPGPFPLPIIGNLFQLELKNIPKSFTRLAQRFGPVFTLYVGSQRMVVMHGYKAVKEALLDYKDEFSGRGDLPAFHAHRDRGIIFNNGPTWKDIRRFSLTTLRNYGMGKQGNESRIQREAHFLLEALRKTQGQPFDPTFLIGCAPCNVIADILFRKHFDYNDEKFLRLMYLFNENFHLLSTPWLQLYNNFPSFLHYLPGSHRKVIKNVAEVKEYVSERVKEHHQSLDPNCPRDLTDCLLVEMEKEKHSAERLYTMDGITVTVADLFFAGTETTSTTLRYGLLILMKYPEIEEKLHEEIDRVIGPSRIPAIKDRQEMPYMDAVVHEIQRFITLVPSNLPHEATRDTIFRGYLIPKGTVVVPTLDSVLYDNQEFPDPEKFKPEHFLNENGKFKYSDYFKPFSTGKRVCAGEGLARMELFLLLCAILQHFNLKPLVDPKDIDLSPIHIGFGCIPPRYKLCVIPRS

CCCCCCCCCCCC(=O)OCC(COP(=O)(O)OCCNC(=O)c1ccc(Cn2c(=O)[nH]c3c(N)nc(OCCOC)nc32)cc1)OC(=O)CCCCCCCCCCC (stereo not shown) [SC12]
HPLC % at RRT = 1 ([1]; Solid, RT and light, t = 20 days): RRT = 1: 87.8%
HPLC % at RRT = 1 ([1]; Solid, external T and light, t = 20 days): RRT = 1: 84.0%
HPLC % at RRT = 1 ([1]; Solution in CHCl3, RT and light, t = 0): RRT = 1: 90.3%
HPLC % at RRT = 1 ([1]; Solution in CHCl3, RT and light, t = 20 days): RRT = 1: 88.0%
stability compared with compound A ([1]; storage 20 days): more stable than compound A
activity after storage [2]: have not lost activity
Intracellular Concentration % of total ([3]; Incubation 1 hours): 18.5 % of total
Intracellular Concentration % of total ([3]; Incubation 6 hours): 20.6 % of total
Intracellular Concentration % of total ([3]; Incubation 18 hours): 21.4 % of total
CD80 expression in pDCs (MFI, words) [4]: slightly higher CD80 expression than compound A
CD86 expression in pDCs (MFI, words) [4]: tendency to induce higher CD86 expression than compound A
binding to receptors associated with pain-related syndromes (e.g. adenosine and sodium channel) [5]: did not bind this type of receptors
inhibition of CYP2E1 [6]: moderate inhibition
mortality and clinical signs ([7]; 76 mg/kg, preliminary phase): No mortality occurred
mortality and clinical signs ([7]; 80 mg/kg, main phase): No mortality occurred and no clinical signs were recorded
mortality and clinical signs ([7]; 85 mg/kg, preliminary phase): Piloerection was observed on the day of dosing
necropsy examination ([7]; 90 mg/kg and 80 mg/kg): No abnormalities were observed at necropsy examination
mortality and clinical signs ([7]; 90 mg/kg, main phase, 5 male and 5 female): Three males treated at 90 mg/kg died immediately after dosing, while two females died at 2 hours post-dose
mortality and clinical signs ([7]; 90 mg/kg, preliminary phase): No mortality occurred
mortality and clinical signs ([7]; 100 mg/kg, preliminary phase): Both animals died at dosing
body weight ([7]; surviving animals at 90 mg/kg and animals at 80 mg/kg): slight to moderate body weight loss on Day 2
local side effects ([8]; subcutaneous, 10 nMol): No local side effects
IgG responses against the target antigens ([8]; three subcutaneous immunizations, 20 micrograms antigen with 10 nMol adjuvant): developed IgG responses
cell numbers, real-time cell analysis ([9]; FIG. 11): reduced cell numbers
morphology and proliferation ([9]; day 3, 120 microM): cell detachment, morphological changes and inhibition of proliferation
CD40 expression on B cells (MFI, words) [10]: induced CD40 expression in donor 1 and donor 2 in all tested concentrations
inhibition of CYP3A5 [11]: moderate inhibition
Number of rat bladders Tumor free [12]: 6
Number of rat bladders with pT2 Tumor [12]: 7
Number of rat bladders with pTa Tumor [12]: 1
Tumor free, share of group [12]: 42.9%
pT2 Tumor, share of group [12]: 50.0%
pTa Tumor, share of group [12]: 7.1%
time course of cytokine induction [13]: lower but sustained cytokine induction than the free ligand
serum proinflammatory cytokine levels ([13]; C57BL/6 mice): induced similar levels of the proinflammatory cytokines IL-6, IL-12 and TNF-alpha
toxicity to tester strains ([14]; 50.0-5000 micrograms/plate, absence or presence of S9): No toxicity was observed with any tester strain at any dose level
reverse mutation ([14]; up to 5000 micrograms/plate, absence or presence of S9 metabolism): does not induce reverse mutation
